Results from publication PMC9862037, “Interactions of Mycotoxin Alternariol with Cytochrome P450 Enzymes and OATP Transporters” (Metabolites, 2022).
Like-named read-outs stand apart in the source and are kept apart here.

Columns and labels:
CYP1A2 = target: T1, CYP1A2 (Homo sapiens, UniProt P05177); type: in vitro ADME; conditions: 5 μM AOH
T1 construct: purchased Abcam ab211075
Description: (§1) To test the potential biotransformation of AOH by CYPs, the changes in the concentrations of AOH were examined in the presence of CYP1A2, 2C9, 2C19, 2D6, or 3A4 enzymes. Samples (final volume: 200 μL) containing AOH (5 μM), glucose-6-phosphate (500 μM), nicotinamide adenine dinucleotide phosphate (NADP^+, 200 μM), and the enzymes (CypExpress Cytochrome P450 reagents: 15 mg/mL each; including both CYP and glucose-6-phosphate dehydrogenase enzymes) were incubated for 0, 30, 60, 90, and 120 min (700 rpm, 30 °C) in potassium phosphate buffer (0.05 M, pH 7.5). The reaction was stopped by the addition of ice-cold methanol (100 μL), then the samples were centrifuged (10 min, 14,000 g, room temperature). AOH content of the supernatants was directly analyzed by HPLC-FLD (see details in Section 2.7). As a control, CypExpress Control reagent (CYPnull; 15 mg/mL) was also applied, which is a permeabilized and stabilized dried yeast powder (produced using an empty vector) and processed identically to CypExpress Cytochrome P450 products.
(§2) In CYP experiments, AOH was quantified with the above-described HPLC system, except that a fluorescence detector (FP-920; Jasco, Tokyo, Japan) was applied. Samples (20 μL) were driven through a Phenomenex Security Guard (C18, 4.0 × 3.0 mm) precolumn (Phenomenex, Torrance, CA, USA) linked to a Kinetex EVO-C18 (250 × 4.6 mm, 5 μm; Phenomenex) analytical column with 1.0 mL/min flow rate, at room temperature. For the isocratic elution, a mobile phase with 1 mM phosphoric acid (pH 3.0) and acetonitrile (65:35 v/v%) was applied. AOH was detected at 455 nm (λex = 345 nm). Limit of detection (LOD) and limit of quantification (LOQ) were established as the lowest concentrations when the signal-to-noise ratios were three and ten, respectively. The major validation parameters of this HPLC-FLD method were the following: linearity (R^2 = 0.997, in the 100–1000 nM concentration range); LOD = 100 nM; LOQ = 200 nM; intraday precision = 2.9% (n = 7); accuracy = 3.4% (n = 7).

CYP2C19 = target: T2, CYP2C19 (Homo sapiens, UniProt P33261); type: in vitro ADME; conditions: 5 μM AOH; significant (p < 0.01) only after 120 min
T2 construct: purchased Merck; host or cells: yeast (inferred from the description of the CYPnull control, 'processed identically')
Description: as §1, §2

CYP2C9 = target: T3, CYP2C9 (Homo sapiens, UniProt P11712); type: in vitro ADME; conditions: 5 μM AOH; 120 min incubation; vs CYPnull
T3 construct: purchased Merck; host or cells: yeast (inferred from the description of the CYPnull control, 'processed identically')
Description: as §1, §2

CYP2D6 = target: T4, CYP2D6 (Homo sapiens, UniProt P10635); type: in vitro ADME; conditions: 5 μM AOH; 120 min incubation; vs CYPnull
T4 construct: purchased Merck; host or cells: yeast (inferred from the description of the CYPnull control, 'processed identically')
Description: as §1, §2

CYP3A4 = target: T5, CYP3A4 (Homo sapiens, UniProt P08684); type: in vitro ADME; conditions: 5 μM AOH; 120 min incubation; vs CYPnull
T5 construct: purchased Merck; host or cells: yeast (inferred from the description of the CYPnull control, 'processed identically')
Description: as §1, §2

OATP1B1 = OATP1B1 (Homo sapiens, UniProt Q9Y6L6); type: cell-based; set-up: expressed in transfected cells; host or cells: A431; conditions: 2, 5 or 10 µM AOH; 15 min; pH 5.5
Description: The A431 cell line overexpressing OATP1B1 or mock transfected control were trypsinized, and counted with automated cell counter (TC10, BIORAD, Hercules, CA, USA). The cells were washed with 1 mL buffer (pH 5.5; described above) and centrifuged for 5 min at 1500 g. After the supernatant was removed, 2 × 10^6 cells in 50 µL volume of the same buffer were handed out into separate Eppendorf tubes, then 50 µL of AOH solutions (diluted in buffer, pH 5.5) was added (final concentrations: 2, 5, or 10 µM). The cells were incubated for 15 min at 37 °C in shaking water bath. The reaction was stopped with 1 mL ice-cold PBS, after which the tubes were centrifuged for 5 min at 1500 g and 4 °C. The supernatant was removed, and the cells were washed with 1 mL ice-cold PBS, then the cell pellet was stored at −80 °C until analyses.
Before HPLC measurements, cell pellets were dissolved in 100 μL of 1 M NaOH solution with vigorous vortexing. After 15 min sonication, the solution was neutralized with 100 μL of 1 M HCl, then 200 μL acetonitrile was added. […] Thereafter, the supernatant was directly analyzed with HPLC-FLD (see details in Section 2.7).
To examine the OATP1B1-mediated uptake of AOH in A431 cells, our recently reported magnesium-sensitized HPLC-FLD method was applied. […] AOH was quantified using 345 nm and 455 nm excitation and emission wavelengths, respectively. […]

T1 sequence (P05177 whole entry): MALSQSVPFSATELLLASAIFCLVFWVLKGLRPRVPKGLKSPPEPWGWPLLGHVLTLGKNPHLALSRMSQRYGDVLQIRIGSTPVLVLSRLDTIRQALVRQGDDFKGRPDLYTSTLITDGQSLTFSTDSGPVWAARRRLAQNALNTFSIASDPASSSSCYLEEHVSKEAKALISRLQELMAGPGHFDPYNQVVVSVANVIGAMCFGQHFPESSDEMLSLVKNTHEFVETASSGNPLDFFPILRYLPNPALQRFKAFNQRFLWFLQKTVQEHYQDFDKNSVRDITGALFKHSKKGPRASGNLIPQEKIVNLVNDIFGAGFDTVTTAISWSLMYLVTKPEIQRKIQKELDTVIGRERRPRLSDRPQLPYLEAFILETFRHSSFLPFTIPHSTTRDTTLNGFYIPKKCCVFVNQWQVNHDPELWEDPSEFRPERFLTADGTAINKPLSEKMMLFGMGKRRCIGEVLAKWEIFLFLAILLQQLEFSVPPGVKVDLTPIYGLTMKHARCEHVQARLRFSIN
T2 sequence (P33261 whole entry): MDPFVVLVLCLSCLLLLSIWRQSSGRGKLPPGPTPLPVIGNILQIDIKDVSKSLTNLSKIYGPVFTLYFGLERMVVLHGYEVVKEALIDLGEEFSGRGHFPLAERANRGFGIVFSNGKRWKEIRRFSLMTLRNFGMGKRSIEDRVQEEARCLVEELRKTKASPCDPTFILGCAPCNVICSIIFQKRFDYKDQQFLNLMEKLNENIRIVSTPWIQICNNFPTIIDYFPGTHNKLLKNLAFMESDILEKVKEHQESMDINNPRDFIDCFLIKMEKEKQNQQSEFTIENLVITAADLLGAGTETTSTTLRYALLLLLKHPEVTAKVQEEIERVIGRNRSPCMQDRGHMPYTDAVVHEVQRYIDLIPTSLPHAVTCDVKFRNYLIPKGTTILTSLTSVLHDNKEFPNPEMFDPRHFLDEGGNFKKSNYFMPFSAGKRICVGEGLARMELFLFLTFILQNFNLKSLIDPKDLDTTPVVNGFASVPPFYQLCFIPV
T5 sequence (P08684 whole entry): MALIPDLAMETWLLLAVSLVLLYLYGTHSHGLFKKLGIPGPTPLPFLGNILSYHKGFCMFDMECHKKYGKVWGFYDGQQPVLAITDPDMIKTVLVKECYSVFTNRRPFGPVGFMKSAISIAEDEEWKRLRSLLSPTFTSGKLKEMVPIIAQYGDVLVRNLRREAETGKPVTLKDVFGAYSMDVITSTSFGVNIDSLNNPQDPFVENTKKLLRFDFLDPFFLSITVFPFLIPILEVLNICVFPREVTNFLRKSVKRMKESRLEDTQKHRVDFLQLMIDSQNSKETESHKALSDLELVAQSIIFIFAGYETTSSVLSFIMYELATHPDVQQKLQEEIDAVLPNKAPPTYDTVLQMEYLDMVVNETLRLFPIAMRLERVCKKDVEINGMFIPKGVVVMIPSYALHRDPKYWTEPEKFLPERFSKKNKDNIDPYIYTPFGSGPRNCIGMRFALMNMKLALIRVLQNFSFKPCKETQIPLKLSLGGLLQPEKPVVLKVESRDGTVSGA
T3 sequence (P11712 whole entry): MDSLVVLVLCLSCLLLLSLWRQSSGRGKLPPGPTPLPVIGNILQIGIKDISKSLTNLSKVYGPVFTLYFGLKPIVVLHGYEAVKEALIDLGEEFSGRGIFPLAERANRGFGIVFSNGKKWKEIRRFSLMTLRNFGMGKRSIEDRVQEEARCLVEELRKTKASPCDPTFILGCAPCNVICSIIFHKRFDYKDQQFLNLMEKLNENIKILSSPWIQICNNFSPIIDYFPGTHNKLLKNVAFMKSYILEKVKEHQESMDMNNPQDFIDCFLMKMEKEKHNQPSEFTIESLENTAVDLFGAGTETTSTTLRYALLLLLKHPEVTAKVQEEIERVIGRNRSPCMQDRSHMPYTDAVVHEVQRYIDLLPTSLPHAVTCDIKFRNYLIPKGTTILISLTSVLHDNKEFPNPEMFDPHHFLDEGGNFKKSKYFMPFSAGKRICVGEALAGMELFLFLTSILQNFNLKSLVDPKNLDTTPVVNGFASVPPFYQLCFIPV
T4 sequence (P10635 whole entry): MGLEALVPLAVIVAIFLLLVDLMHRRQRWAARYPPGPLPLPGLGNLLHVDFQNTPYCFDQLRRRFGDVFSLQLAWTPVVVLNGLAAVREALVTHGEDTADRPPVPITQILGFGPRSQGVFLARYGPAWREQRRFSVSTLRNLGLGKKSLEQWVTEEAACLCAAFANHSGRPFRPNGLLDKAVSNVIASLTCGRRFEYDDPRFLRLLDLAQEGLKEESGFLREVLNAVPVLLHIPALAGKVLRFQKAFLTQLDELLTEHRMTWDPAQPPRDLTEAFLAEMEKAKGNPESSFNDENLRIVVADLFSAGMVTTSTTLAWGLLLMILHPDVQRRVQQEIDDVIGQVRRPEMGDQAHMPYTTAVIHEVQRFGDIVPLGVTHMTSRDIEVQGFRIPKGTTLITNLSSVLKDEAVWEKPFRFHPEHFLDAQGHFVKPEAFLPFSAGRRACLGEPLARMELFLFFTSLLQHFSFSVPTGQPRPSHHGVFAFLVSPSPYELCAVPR
Sequence of OATP1B1 (Q9Y6L6 whole entry): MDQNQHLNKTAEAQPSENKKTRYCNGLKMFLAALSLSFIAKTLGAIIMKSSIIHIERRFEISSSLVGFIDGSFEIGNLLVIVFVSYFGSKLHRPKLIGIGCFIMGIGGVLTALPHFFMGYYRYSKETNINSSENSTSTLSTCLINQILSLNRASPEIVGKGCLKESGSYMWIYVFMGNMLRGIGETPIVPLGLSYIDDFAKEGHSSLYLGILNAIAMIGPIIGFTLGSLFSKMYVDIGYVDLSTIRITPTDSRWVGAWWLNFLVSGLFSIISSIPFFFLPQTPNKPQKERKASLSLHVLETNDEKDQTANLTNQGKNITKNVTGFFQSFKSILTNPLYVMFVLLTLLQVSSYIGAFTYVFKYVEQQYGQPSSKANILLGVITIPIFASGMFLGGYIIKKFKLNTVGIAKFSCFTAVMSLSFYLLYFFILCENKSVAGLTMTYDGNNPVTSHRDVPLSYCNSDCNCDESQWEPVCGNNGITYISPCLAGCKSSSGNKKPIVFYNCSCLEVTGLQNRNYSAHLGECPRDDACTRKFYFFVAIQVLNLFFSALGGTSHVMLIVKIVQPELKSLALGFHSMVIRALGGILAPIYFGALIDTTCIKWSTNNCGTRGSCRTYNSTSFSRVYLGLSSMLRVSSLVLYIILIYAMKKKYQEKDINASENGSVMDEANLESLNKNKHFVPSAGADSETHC

Cc1cc(O)cc2oc(=O)c3c(O)cc(O)cc3c12 [AOH, Alternariol]
depletion of AOH by CYP1A2 (CYP1A2; 60 min incubation): 16%
depletion of AOH by CYP1A2 (CYP1A2; 120 min incubation): 25%
changes in AOH levels in the presence of CYP2C19 (CYP2C19): slight decrease
changes in AOH levels in the presence of CYP2C9 (CYP2C9): no relevant changes
changes in AOH levels in the presence of CYP2D6 (CYP2D6): no relevant changes
changes in AOH levels in the presence of CYP3A4 (CYP3A4): no relevant changes
cellular AOH levels in OATP1B1 expressing vs mock cells (OATP1B1): higher cellular AOH levels
